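Dose response: 5 concentrations. Exposure: 48 h. Format: 96-well plates. Endpoint: linear interpolation; highest concentration if not reached. Here, GI50 denotes the concentration required for 50% inhibition of growth. Definition used: TGI = concentration required for complete inhibition of growth.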
How the values were obtained:
Assay in all cases: growth of human tumour cells (NCI), 48 h
DU-145 prostate = system: DU-145 prostate
TK-10 renal = system: TK-10 renal
HOP-92 NSCLC = system: HOP-92 NSCLC
BT-549 breast = system: BT-549 breast
NCI-H226 lung = system: NCI-H226 lung
MDA-MB-435 = system: MDA-MB-435
CCRF-CEM leukemia = system: CCRF-CEM leukemia
SW-620 colon = system: SW-620 colon
MDA-MB-231 breast = system: MDA-MB-231 breast
ACHN renal = system: ACHN renal
SNB-19 CNS = system: SNB-19 CNS
HS 578T breast = system: HS 578T breast
CAKI-1 renal = system: CAKI-1 renal
UO-31 renal = system: UO-31 renal
PC-3 prostate = system: PC-3 prostate
SF-268 CNS = system: SF-268 CNS
HCT-116 colon = system: HCT-116 colon
UACC-62 melanoma = system: UACC-62 melanoma
SR leukemia = system: SR leukemia
SK-MEL-28 melanoma = system: SK-MEL-28 melanoma
NCI-H522 lung = system: NCI-H522 lung
HOP-62 NSCLC = system: HOP-62 NSCLC
A498 renal = system: A498 renal
U251 CNS = system: U251 CNS
OVCAR-8 ovarian = system: OVCAR-8 ovarian
OVCAR-5 ovarian = system: OVCAR-5 ovarian
786-0 renal = system: 786-0 renal
COLO 205 colon = system: COLO 205 colon
HT29 colon = system: HT29 colon

CC(C)(C)c1n[nH]c(=S)n(/N=C/c2ccc(F)c(Oc3ccccc3)c2)c1=O
GI50 (DU-145 prostate): 67.7 µM | TGI (DU-145 prostate): > 100 µM | GI50 (TK-10 renal): 22.2 µM | TGI (TK-10 renal): 91.4 µM | GI50 (HOP-92 NSCLC): 27.3 µM | TGI (HOP-92 NSCLC): > 100 µM | GI50 (BT-549 breast): 34.5 µM | TGI (BT-549 breast): 94.5 µM | GI50 (NCI-H226 lung): > 100 µM | TGI (NCI-H226 lung): > 100 µM | GI50 (MDA-MB-435): 38 µM | TGI (MDA-MB-435): > 100 µM | GI50 (CCRF-CEM leukemia): 32.7 µM | TGI (CCRF-CEM leukemia): > 100 µM | GI50 (SW-620 colon): 34.7 µM | TGI (SW-620 colon): > 100 µM | GI50 (MDA-MB-231 breast): 34.6 µM | TGI (MDA-MB-231 breast): > 100 µM | GI50 (ACHN renal): 33.8 µM | TGI (ACHN renal): > 100 µM | GI50 (SNB-19 CNS): 40.9 µM | TGI (SNB-19 CNS): > 100 µM | GI50 (HS 578T breast): 31.4 µM | TGI (HS 578T breast): 85.8 µM | GI50 (CAKI-1 renal): 28.5 µM | TGI (CAKI-1 renal): 68.9 µM | GI50 (UO-31 renal): 33.9 µM | TGI (UO-31 renal): > 100 µM | GI50 (PC-3 prostate): 38.6 µM | TGI (PC-3 prostate): > 100 µM | GI50 (SF-268 CNS): 35.9 µM | TGI (SF-268 CNS): > 100 µM | GI50 (HCT-116 colon): > 100 µM | TGI (HCT-116 colon): > 100 µM | GI50 (UACC-62 melanoma): 38.2 µM | TGI (UACC-62 melanoma): > 100 µM | GI50 (SR leukemia): > 100 µM | TGI (SR leukemia): > 100 µM | GI50 (SK-MEL-28 melanoma): 20.7 µM | TGI (SK-MEL-28 melanoma): > 100 µM | GI50 (NCI-H522 lung): > 100 µM | TGI (NCI-H522 lung): > 100 µM | GI50 (HOP-62 NSCLC): 90.1 µM | TGI (HOP-62 NSCLC): > 100 µM | GI50 (A498 renal): 27.8 µM | TGI (A498 renal): 69.7 µM | GI50 (U251 CNS): 39.2 µM | TGI (U251 CNS): > 100 µM | GI50 (OVCAR-8 ovarian): 25.6 µM | TGI (OVCAR-8 ovarian): > 100 µM | GI50 (OVCAR-5 ovarian): 54.3 µM | TGI (OVCAR-5 ovarian): > 100 µM | GI50 (786-0 renal): 34.9 µM | TGI (786-0 renal): > 100 µM | GI50 (COLO 205 colon): 38.6 µM | TGI (COLO 205 colon): > 100 µM | GI50 (HT29 colon): 43.4 µM

Reference: PubChem BioAssay (NCI)
